The values below are quoted from earlier work in patent US6352152B1, “Method and package for storing a pressurized container containing a drug” (Smithkline Beecham Corporation, priority 1998, dated 2002).

The conditions of this data set: Pischtiak 1999, Solvay chemical data sheet.
For the molecule `FC(F)(Cl)C(F)(F)Cl` [CFC 114], the “maximum water solubility in the propellant” value (from here on “maximum water solubility”) is given as “about 130 ppm”. Consider `FCC(F)(F)F` [HFC 134a, 1,1,1,2-tetrafluoroethane], for which the “maximum water solubility” value is reported as “about 2200 ppm”. As to `FC(F)(Cl)Cl` [CFC 12], the “maximum water solubility” value is on record as “about 130 ppm”.
